# B1: AspF1: recombinant A. fumigatus major allergen and cytotoxin AspF1 (His136Leu) (protein)
# chain: ATWTCINQQLNPKTNKWEDKRLLYSQAKAESNSHHAPLSDGKTGSSYPHWFTNGYDGNGKLIKGRTPIKFGKADCDRPPKHSQNGMGKDDHYLLEFPTFPDGHDYKFDSKKPKEDPGPARVIYTYPNKVFCGIVALQRGNQGDLRLCSH
# Tests used:
# [1] = system: T-cell lines of 7 donors with different MHC class II alleles; assay: Epitope mapping of Crf1 peptides with IFN-γ ELISPOT; format: cell-based, human; settings: 7 donors tested, peptide-pulsed autologous DC
# Description: (§1) As the identification of potential protective fungal antigens is rather intricate due to the extensiveness of fungal genomes, we analyzed 6 different A. fumigatus recombinant proteins based on their previously reported immunogeneic reactivity in mice and humans^7,10. […] By contrast, GPI-anchored extracellular cell wall glucanase Crf1 and secreted protein peptidase induced high IFN-γ in 6 of 7 and 5 of 10 tested donors, respectively. The response was mediated by CD4^+ TH1 cells, as MHC class II blocking antibody nearly abrogated IFN-γ release (data not shown). Due to the broad response and the sequence similarity to the C. albicans orthologue Crh1, we focused in subsequent experiments on the protein Crf1. By epitope mapping of 7 healthy individuals with different MHC class II alleles, we identified 10 potential candidate epitopes (Table 1). Based on the results obtained by epitope mapping, the probability of antigen presentation by certain MHC class II alleles assessed by epitope prediction^11, previously reported immunogeneic reactivity^12 and sequence similarity to the C. albicans homologue Crh1, we then generated CD4^+ TH1 T-cell clones specific for the peptides p1, p22, p27, p41, p48, p59, p69 and p84 (FIG. 1a and Table 1).
# A peptide library covering the complete Crf1 sequence consisting of 94 15-mer peptides overlapping by […] (aa) was divided into sub-pools of 10 peptides and 94 single peptides (p1-p94) (PANATecs). 3 11-mer peptides of p40/41 overlapping by 2aa ([…], […], HTYTIDWTKDA) were obtained from JPT Peptide Technologies.
# (§2) For analysis of recombinant proteins and epitope mapping, T-cell lines were generated by incubation of 1×10^7 PBMC per well in 6-well cell culture plates with 5 μg/ml protein or peptide for 7d in the presence of 5 U/ml IL-2 (Proleukin, Chiron). Antigen specificity was analyzed by IFN-γ ELISA^42 after restimulation with autologous monocytes incubated overnight with 5 μg/ml protein in a responder to stimulator (R:S) ratio of 5:1. Epitope mapping was performed by IFN-γ ELISPOT^39 after stimulation with peptide-pulsed autologous DC at a R:S ratio of 10:1.
# [2] = system: DC transfected with Crf1 mRNA; assay: Peptide-specific T-cell clones stimulated with Crf1 mRNA-transfected DC (IFN-γ); format: cell-based, human; settings: for Response of peptide-specific CD4+ T-cell clones to endogenously processed antigen: all donors
# Protocol: (§3) T-cell cloning was performed as described in below. T-cell clones were stimulated either with mature peptide-pulsed (2.5 μg/ml) or Crf1 mRNA-transfected DC, immature DC incubated for 24 h with A. fumigatus cell extract (20 μg/ml) in the presence of cytokine maturation cocktail or immature DC incubated for 24 h with inactivated A. fumigatus or C. albicans fungus (multiplicity of infection 3) in a R:S ratio of 5:1.
# For T-cell cloning 6×10^7 PBMC were stimulated overnight with 5 μg/ml peptide and 1 μg/ml CD40 antibody (HB14, Miltenyi Biotec). Cells were labelled with anti-CD154^+ microbeads and isolated by magnetic cell separation according to the manufacturers' instructions (Miltenyi Biotec). Selected cells were cultured with γ-irradiated autologous PBMC (ratio 1:50) and cytokines were supplemented as described above. On d14, T-cell clones were generated by limiting dilution in 96-well plates and expanded using the rapid expansion protocol previously described^50.
# A. fumigatus Crf1 cDNA was cloned into the pGEM4Z vector (provided by Kris Thielemans) and in vitro transcribed using mMESSAGE mMACHINE T Ultra Kit (Ambion) according to the manufacturers' instructions. Crf1 was fused to the N-terminal domain of the invariant chain to enhance antigen presentation by MHC class II^51,52. Maturated DC were electroporated with 15 μg mRNA at 300V and 150 μF using the EQUIBIO EasyjecT Plus® apparatus (EQUIBIO) in serum-free medium (OptiMEM, Gibco)^41.
# [3] = system: A. flavus, A. nidulans, A. niger, A. terreus, C. glabrata and C. krusei; assay: Cross-reactivity of T-cell clones to other Aspergillus and Candida species; format: cell-based; settings: data not shown
# Description: We then analyzed if our T-cell clones might cross-react to other clinically relevant Aspergillus and Candida species such as A. flavus, A. nidulans, A. niger, A. terreus, C. glabrata and C. krusei because they also express proteins with some sequence similarity to A. fumigatus Crf1. […] Thus, p41-specific TH1 cells represent a core repertoire in antifungal immune responses being reactive to A. fumigatus but also to C. albicans, the second most important pathogenic fungus in HSCT patients.
# Fungal strains A. fumigatus D141, A. nidulans FGSCA4, C. albicans SC5314 and clinical isolates A. fumigatus, A. terreus, A. flavus, A. niger, C. albicans, C. glabrata and C. krusei were provided by Sven Krappmann, Joachim Morschhäuser and Reno Frei.
# C. albicans = assay: Peptide-specific T-cell clones stimulated with inactivated C. albicans yeast; format: cell-based, Candida albicans; settings: inactivated C. albicans yeast, established strain
# Description: A. fumigatus Crf1 p41-specific T-cell clones are cross-reactive to C. albicans and can be activated by different clinical isolates of both fungi. (a) All A. fumigatus Crf1 p41-specific T-cell clones from different donors respond to stimulation with inactivated C. albicans yeast. IFN-γ values are given after subtraction of the negative control. Shown is 1 clone per antigen and donor (representative experiments, n≧3). (b) A. fumigatus Crf1 p41-specific T-cell clones respond to different inactivated clinical isolates of germinating A. fumigatus conidia and C. albicans yeast.
# as §3
# (§4) Fungal extracts were generated as described^48 and protein content was measured by Bradford protein assay (Perbio Science) according to the manufacturers' instructions. For inactivated fungus Aspergillus conidia were inoculated in growth medium^49 and cultured for 0, 4, 8 or 12 h. Candida species were cultured for 24 h. Fungi were inactivated with 70% ethanol. Ethanol-inactivated fungi and extracts were validated for sterility by subculturing on Sabouraud dextrose agar.
# [4] = system: A. fumigatus cell extract; assay: Peptide-specific T-cell clones stimulated with DC incubated with A. fumigatus cell extract (IFN-γ); format: cell-based, Aspergillus fumigatus; settings: extract 20 μg/ml, DC incubated 24 h
# Protocol: as §3, §4
# [5] = system: T-cell lines from PBMC of healthy donors; assay: IFN-γ ELISA of T-cell lines stimulated with recombinant A. fumigatus proteins; format: cell-based, human; settings: 5 μg/ml protein
# Description: as §1
# A. fumigatus superoxide dismutase^34, catalase^35, peptidase^36 and 1,3-beta-glucanosyl-transferase Gel1^30 were produced in the yeast Pichia pastoris as described^37. Extracellular cell wall glucanase Crf1^37 (cDNA provided by Utz Reichard) and the major allergen and cytotoxin AspF1^10 were expressed with FLAG-Tags in the human cell line phoenix GALV^38.
# as §2
molecule,measurement,setting,value
"SAGPYTMYVKSVRIE (peptide epitope of A. fumigatus Crf1) [p58, Crf1 aa 229-243]",No. of responders,[1],3
"PPNKGLAASTYTADF (peptide epitope of A. fumigatus Crf1) [p9, Crf1 aa 33-47]",No. of responders,[1],3
"GSSNTGSGSGSGSGS (peptide epitope of A. fumigatus Crf1) [p84, Crf1 aa 333-347]",Response of peptide-specific CD4+ T-cell clones to endogenously processed antigen,[2],"None of the CD4^+ T-cell clones specific for the peptides p48, p69 and p84 responded to Crf1 mRNA-transfected DC"
same,Number of T-cell clones reacting to Crf1 mRNA-transfected DC/number of peptide-specific T-cell clones,[2]; donor 4,0/4
same,Number of T-cell clones reacting to Crf1 mRNA-transfected DC/number of peptide-specific T-cell clones,[2]; donor 11,0/5
same,No. of responders,[1],5
"MYFKYTAAALAAVLP (peptide epitope of A. fumigatus Crf1) [p1, Crf1 aa 1-15]",Response of peptide-specific CD4+ T-cell clones to endogenously processed antigen,[2],"only some of the p1-, p22-, p27- and p59-specific CD4^+ T-cells clones responded to endogenously processed antigen"
same,Number of T-cell clones reacting to Crf1 mRNA-transfected DC/number of peptide-specific T-cell clones,[2]; donor 5,3/3
same,Number of T-cell clones reacting to Crf1 mRNA-transfected DC/number of peptide-specific T-cell clones,[2]; donor 6,1/5
same,Number of T-cell clones reacting to Crf1 mRNA-transfected DC/number of peptide-specific T-cell clones,[2]; donor 7,0/6
same,Number of T-cell clones reacting to Crf1 mRNA-transfected DC/number of peptide-specific T-cell clones,[2]; donor 12,10/10
same,Cross-reactivity to other Aspergillus and Candida species,[3],"weak cross-reactivity to A. flavus, A. nidulans and A. terreus"
same,Cross-reactivity of peptide-specific T-cell clones to C. albicans,C. albicans,"none of the Crf1 p1-, Cal p27- and Cal p59-specific T-cell clones could be activated"
same,No. of responders,[1],4
same,Response of peptide-specific T-cell clones to A. fumigatus extract,[4],most Crf1 p1-specific T-cell clones of 2 of 4 donors responded to A. fumigatus extract
"TRFPQTPMRLRLGSW (peptide epitope of A. fumigatus Crf1) [p49, Crf1 aa 193-207]",No. of responders,[1],4
superoxide dismutase,IFN-γ response,[5],only weak interferon-γ (IFN-γ) responses in some donors
catalase,IFN-γ response,[5],only weak interferon-γ (IFN-γ) responses in some donors
"TGSSTSAGASATPEL (peptide epitope of A. fumigatus Crf1) [p89, Crf1 aa 353-367]",No. of responders,[1],4
"AKGGTRFPQTPMRLR (peptide epitope of A. fumigatus Crf1) [p48, Crf1 aa 189-203]",Response of peptide-specific CD4+ T-cell clones to endogenously processed antigen,[2],"None of the CD4^+ T-cell clones specific for the peptides p48, p69 and p84 responded to Crf1 mRNA-transfected DC"
same,Number of T-cell clones reacting to Crf1 mRNA-transfected DC/number of peptide-specific T-cell clones,[2]; donor 3,0/7
same,Number of T-cell clones reacting to Crf1 mRNA-transfected DC/number of peptide-specific T-cell clones,[2]; donor 4,0/4
same,Number of T-cell clones reacting to Crf1 mRNA-transfected DC/number of peptide-specific T-cell clones,[2]; donor 11,0/5
same,No. of responders,[1],3
"YTMYVKSVRIENANP (11-mer peptide of p40/41) [p59, Crf1 aa 233-247]",Response of peptide-specific CD4+ T-cell clones to endogenously processed antigen,[2],"only some of the p1-, p22-, p27- and p59-specific CD4^+ T-cells clones responded to endogenously processed antigen"
same,Number of T-cell clones reacting to Crf1 mRNA-transfected DC/number of peptide-specific T-cell clones,[2]; donor 5,1/3
same,Number of T-cell clones reacting to Crf1 mRNA-transfected DC/number of peptide-specific T-cell clones,[2]; donor 6,2/2
same,Number of T-cell clones reacting to Crf1 mRNA-transfected DC/number of peptide-specific T-cell clones,[2]; donor 12,1/7
same,Cross-reactivity to other Aspergillus and Candida species,[3],"none of the Crf1 p27-, p41- and p59-specific T-cell clones showed any cross-reactivity to these fungi"
same,Cross-reactivity of peptide-specific T-cell clones to C. albicans,C. albicans,"none of the Crf1 p1-, Cal p27- and Cal p59-specific T-cell clones could be activated"
same,No. of responders,[1],5
same,Response of peptide-specific T-cell clones to A. fumigatus extract,[4],only very few T-cell clones specific for Cal p27 and Crf1 p59
"SSSSVTSSTTSTASS (peptide epitope of A. fumigatus Crf1) [p69, Crf1 aa 273-287]",Response of peptide-specific CD4+ T-cell clones to endogenously processed antigen,[2],"None of the CD4^+ T-cell clones specific for the peptides p48, p69 and p84 responded to Crf1 mRNA-transfected DC"
same,Number of T-cell clones reacting to Crf1 mRNA-transfected DC/number of peptide-specific T-cell clones,[2]; donor 1,0/3
same,Number of T-cell clones reacting to Crf1 mRNA-transfected DC/number of peptide-specific T-cell clones,[2]; donor 4,0/2
same,No. of responders,[1],3
B1,IFN-γ response,[5],only weak interferon-γ (IFN-γ) responses in some donors
